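Exposure lasted 48 hours, with cells grown in 96-well plates and compounds tested at five concentrations. Here, GI50 denotes the concentration required for 50% inhibition of growth. TGI denotes the concentration required for complete inhibition of growth.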
How the values were obtained:
Experiment in all cases: NCI-60 cell line screen, 48 h
786-0 renal = test system: 786-0 renal
A498 renal = test system: A498 renal
DU-145 prostate = test system: DU-145 prostate
HT29 colon = test system: HT29 colon
MDA-MB-435 = test system: MDA-MB-435
NCI/ADR-RES ovarian = test system: NCI/ADR-RES ovarian
OVCAR-5 ovarian = test system: OVCAR-5 ovarian
TK-10 renal = test system: TK-10 renal
SK-MEL-28 melanoma = test system: SK-MEL-28 melanoma
SNB-75 CNS = test system: SNB-75 CNS

| Compound | TGI (786-0 renal) [µM] | TGI (A498 renal) [µM] | TGI (DU-145 prostate) [µM] | TGI (HT29 colon) [µM] | TGI (MDA-MB-435) [µM] | TGI (NCI/ADR-RES ovarian) [µM] | TGI (OVCAR-5 ovarian) [µM] | TGI (TK-10 renal) [µM] | TGI (SK-MEL-28 melanoma) [µM] | TGI (SNB-75 CNS) [µM] | GI50 (A498 renal) [µM] | GI50 (DU-145 prostate) [µM] | GI50 (HT29 colon) [µM] | GI50 (MDA-MB-435) [µM] | GI50 (NCI/ADR-RES ovarian) [µM] | GI50 (OVCAR-5 ovarian) [µM] | GI50 (SK-MEL-28 melanoma) [µM] | GI50 (SNB-75 CNS) [µM] | GI50 (TK-10 renal) [µM] |
| --- | --- | --- | --- | --- | --- | --- | --- | --- | --- | --- | --- | --- | --- | --- | --- | --- | --- | --- | --- |
| CCOS(=O)(=O)c1ccc(-c2c3nc(c(-c4ccc(S(=O)(=O)OCC)cc4)c4ccc([nH]4)c(-c4ccc(S(=O)(=O)OCC)cc4)c4nc(c(-c5ccc(S(=O)(=O)OCC)cc5)c5ccc2[nH]5)C=C4)C=C3)cc1 | > 31.6 | > 31.6 | > 31.6 | > 100 | > 31.6 | > 31.6 | > 31.6 | > 31.6 | – | – | – | – | – | – | – | – | – | – | – |
| COc1ccc(-c2nnc3n(C)c4ccccc4n3c2=O)cc1 | > 100 | > 100 | > 100 | > 100 | > 100 | > 100 | > 100 | > 100 | > 100 | 60.4 | – | – | – | – | – | – | – | – | – |
| COc1ccc(N2C(=O)/C(=C/c3ccc(N(CCC#N)CCC#N)cc3)N=C2c2ccccc2)cc1 | > 100 | > 100 | > 100 | > 100 | > 100 | > 100 | > 100 | > 100 | > 100 | > 100 | – | – | – | – | – | – | – | – | – |
| CC(=O)[C@@]1(c2ccccc2)CC2(CCN(C)CC2)O[C@H]1C | > 100 | > 100 | > 100 | > 100 | > 100 | > 100 | > 100 | > 100 | > 100 | > 100 | – | – | – | – | – | – | – | – | – |
| N#CC1=C(N)N(/N=C/c2ccco2)C(c2ccco2)C1(C#N)C#N (configuration not stated) | 33.1 | 29.9 | 32.1 | 32.2 | 41.4 | 61.2 | 41.7 | 32.4 | – | 36.6 | – | – | – | – | – | – | – | – | – |
| O=C(NC1C/C(=N/O)c2c(Br)sc(Br)c21)C(F)(F)F (configuration not stated) | 40.4 | 57.8 | > 100 | > 100 | > 100 | 88.6 | > 100 | > 100 | – | > 100 | – | – | – | – | – | – | – | – | – |
| CN(C)CC1CCC/C(=C\c2ccc(OC(=O)/C=C/c3ccc(Cl)cc3)cc2)C1=O (configuration not stated) | 3.05 | 16.3 | 25.5 | 7.12 | 21.1 | 23 | 25.7 | 4.73 | 14.7 | 24.9 | – | – | – | – | – | – | – | – | – |
| C(=N\NC1=NCCN1)/c1ccc2ccccc2c1 | 26.3 | 28.9 | > 100 | 30.4 | 31.3 | 39.4 | 44 | 26.4 | 28.7 | > 100 | – | – | – | – | – | – | – | – | – |
| O=c1c2c3c(sc2nc2n1NC=NN2)CCCC3 | 31.9 | > 89.4 | > 90.4 | 38.9 | 26.4 | 65.5 | 35.9 | > 56 | 36.1 | 59.1 | – | – | – | – | – | – | – | – | – |
| CC(=O)NC(C)(C)C1CCC(C)CC1 (configuration not stated) | > 100 | > 100 | > 100 | > 100 | > 100 | > 100 | > 100 | > 100 | > 100 | > 100 | – | – | – | – | – | – | – | – | – |
| CC[C@]12C=CCN3CC[C@@]4(c5cc(Br)c(OC)cc5N(C)[C@H]4[C@@](O)(C(=O)NC(Cc4c[nH]c5ccccc45)C(=O)OC)[C@@H]1O)[C@@H]32 (some centres not stated) | > 100 | – | > 100 | > 100 | > 100 | > 100 | > 100 | – | > 100 | > 100 | – | – | – | – | – | – | – | – | – |
| COC(=O)C1(Cc2ccccc2)Cc2cc3c(cc2C1O)CCC3 (configuration not stated) | 28.9 | 40.2 | 70.8 | 31.6 | 32.2 | 76.8 | 30.4 | 67.2 | 32.4 | > 100 | – | – | – | – | – | – | – | – | – |
| CC1CN(CCO)CCN1c1ccccc1 (configuration not stated) | > 100 | > 100 | > 100 | > 100 | > 100 | > 100 | > 100 | > 100 | > 100 | > 100 | – | – | – | – | – | – | – | – | – |
| COc1ccc2c3/c(=C\c4ccc(N(C)C)cc4)c4ccccc4n3[n+](C)c2c1 | – | 7.37 | 1.81 | – | 1.83 | > 55.8 | 2.22 | 1.32 | 2.27 | 4.18 | 0.371 | 0.236 | 0.123 | 0.484 | 4.31 | 0.472 | 0.173 | 0.578 | 0.274 |
| O=c1[nH]cnc2c1cnn2Cc1cnnn1COCCO | > 100 | > 100 | > 100 | > 100 | 90.5 | > 100 | > 100 | > 100 | > 100 | > 100 | – | – | – | – | – | – | – | – | – |
| CCSc1nc(N/N=C/c2cccs2)c2cnn(CO)c2n1 | 6.34 | 9.53 | 24.3 | 13.4 | 18.9 | 15.9 | 27 | 21.9 | 29.3 | 28.7 | – | – | – | – | – | – | – | – | – |
| CCNC(=S)NNC(=O)c1ccccc1Nc1ccccc1C(=O)NNC(=S)NCC | > 100 | – | > 100 | > 100 | > 100 | > 100 | > 100 | > 100 | > 100 | > 100 | – | – | – | – | – | – | – | – | – |
| O=C(O)c1nn(-c2ccccc2)nc1-c1nn(-c2ccccc2)nc1C(=O)O | > 100 | – | > 100 | > 100 | > 100 | > 100 | > 100 | > 100 | > 100 | – | – | – | – | – | – | – | – | – | – |
| Cc1nc2ccc(NC3OCC(O)C(O)C3O)cc2c(=O)n1-c1ccccc1 (configuration not stated) | > 100 | > 100 | > 100 | > 100 | > 100 | > 100 | > 100 | > 100 | > 100 | > 100 | – | – | – | – | – | – | – | – | – |
| COC(=O)C12Oc3ccc(-c4ccc5c(c4O)C(O)=C4C(=O)CC(C)C(O)C4(C(=O)OC)O5)c(O)c3C(O)=C1C(=O)CC(C)C2O (configuration not stated) | > 32.2 | 1.81 | > 66 | 0.479 | 1.96 | > 100 | 2.26 | 4.46 | 0.741 | 2.92 | – | – | – | – | – | – | – | – | – |
| COc1ccc(C2=NNC(=O)c3ccccc3N2c2nc(-c3cccs3)nc3cc(OC)c(OC)cc23)cc1 | 12.1 | 10.5 | > 100 | – | 13.6 | > 100 | > 100 | 21 | 5 | 14.1 | – | – | – | – | – | – | – | – | – |
